The test concerns genotype A, "Long" strain RSV. The experiment in a line: RSV-A in vitro cytoprotection assay in HEp-2 cells (ATPlite readout of cell viability). In kind it is cell-based, Human respiratory syncytial virus. As to conditions: human respiratory syncytial virus, HEp-2, HEp-2 cells, genotype A “Long” strain RSV, cytoprotection; read-out: Human RSV-A (“Long” strain) EC50. The method in brief:
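HEp-2 cells (8,000/well) given 2-fold compound dilutions in duplicate, then infected with RSV-A Long strain stock; viability read by ATPlite luminescence after 4 days. EC50 derived from cytoprotection; cytotoxicity measured on parallel uninfected plate.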
(ATP-based viability assays read luminescence as a measure of living cells.)
`Cc1cccc(F)c1NC(=O)c1cc2c(s1)-c1ccccc1N(C(=O)c1cccc(N3CCOC4(CCCC4)C3)n1)CC2` [Example 416]: the EC50 was less than 400 nM.

On to `Cc1cccc(F)c1NC(=O)c1cc2c(s1)-c1ccccc1N(C(=O)c1cccc(N3CCOc4ccc(Cl)cc4C3)n1)CC2` [Example 417], for which the EC50 was less than 400 nM.

Turning to `Cc1cccc(F)c1NC(=O)c1cc2c(s1)-c1ccccc1N(C(=O)c1cccc(N3CCS(=O)(=O)CC3)n1)CC2` [Example 418], the EC50 was less than 400 nM.

As to `Cc1cccc(F)c1NC(=O)c1cc2c(s1)-c1ccccc1N(C(=O)c1cccc(N3CCS(=O)(=O)c4ccccc4C3)n1)CC2` [Example 419], the EC50 is less than 400 nM.

For `COCC(Nc1cccc(C(=O)N2CCc3cc(C(=O)Nc4c(C)cccc4F)sc3-c3ccccc32)n1)C1CC1` (centres unmarked) [Example 420], the half-maximal effective concentration (EC50) lay in the range of 400 to 800 nM.

As to `COCC(C)(C)CNc1cccc(C(=O)N2CCc3cc(C(=O)Nc4c(C)cccc4F)sc3-c3ccccc32)n1` [Example 421], the EC50 is less than 400 nM.

Turning to `Cc1cccc(F)c1NC(=O)c1cc2c(s1)-c1ccccc1N(C(=O)c1cccc(NCCS(C)(=O)=O)n1)CC2` [Example 422], the EC50 is greater than 800 nM.

With `COCCN(c1cccc(C(=O)N2CCc3cc(C(=O)Nc4c(C)cccc4F)sc3-c3ccccc32)n1)S(C)(=O)=O` [Example 423], the EC50 was greater than 800 nM.

`Cc1cccc(F)c1NC(=O)c1cc2c(s1)-c1ccccc1N(C(=O)c1cccc(N3C(=O)OC[C@H]3c3ccccc3)n1)CC2` [Example 424]: the EC50 is greater than 800 nM.

As for `Cc1cccc(F)c1NC(=O)c1cc2c(s1)-c1ccccc1N(C(=O)c1cccc(N3C(=O)OC[C@@H]3c3ccccc3)n1)CC2` [Example 425], the EC50 is less than 400 nM.

Consider `Cc1cccc(F)c1NC(=O)c1cc2c(s1)-c1ccccc1N(C(=O)c1cccc(N3CC4(COC4)C3)n1)CC2` [Example 426], for which the EC50 is greater than 800 nM.

Take `Cc1cccc(F)c1NC(=O)c1cc2c(s1)-c1ccccc1N(C(=O)c1cccc(N3CCC4(COC4)C3)n1)CC2` [Example 427]: the EC50 is greater than 800 nM.

Consider `Cc1cccc(F)c1NC(=O)c1cc2c(s1)-c1ccccc1N(C(=O)c1cccc(N3CC4(C3)CS(=O)(=O)C4)n1)CC2` [Example 428], for which the EC50 is greater than 800 nM.

For `Cc1cccc(F)c1NC(=O)c1cc2c(s1)-c1ccccc1N(C(=O)c1cccc(N3C[C@H]4C[C@@H]3CO4)n1)CC2` [Example 429], the EC50 was less than 400 nM.

For `Cc1cccc(F)c1NC(=O)c1cc2c(s1)-c1ccccc1N(C(=O)c1cccc(N3C[C@@H]4C[C@H]3CO4)n1)CC2` [Example 430], the EC50 was less than 400 nM.

In the case of `Cc1cccc(F)c1NC(=O)c1cc2c(s1)-c1ccccc1N(C(=O)c1cccc(N3CCS(=O)(=O)C(C)(C)C3)n1)CC2` [Example 431], the EC50 is less than 400 nM.

On to `Cc1cccc(F)c1NC(=O)c1cc2c(s1)-c1ccccc1N(C(=O)c1cccc(N3CCS(=O)(=O)CC3C)n1)CC2` (centres unmarked) [Example 432], for which the EC50 was less than 400 nM.

Consider `Cc1cccc(F)c1NC(=O)c1cc2c(s1)-c1ccccc1N(C(=O)c1cccc(N3CCS(=O)(=O)c4ccccc4[C@H]3C)n1)CC2` [Example 433], for which the 50% effective concentration (EC50) was greater than 800 nM.

`Cc1cccc(F)c1NC(=O)c1cc2c(s1)-c1ccccc1N(C(=O)c1cccc(N3CCS(=O)(=O)c4ccccc4[C@@H]3C)n1)CC2` [Example 434]: the EC50 was greater than 800 nM.

In the case of `Cc1cccc(F)c1NC(=O)c1cc2c(s1)-c1ccccc1N(C(=O)c1cccc(N3CCS(=O)(=O)c4c(F)cccc4C3)n1)CC2` [Example 435], the EC50 was less than 400 nM.

Consider `Cc1cccc(F)c1NC(=O)c1cc2c(s1)-c1ccccc1N(C(=O)c1cccc(N3CCS(=O)(=O)c4ccc(F)cc4C3)n1)CC2` [Example 436], for which the EC50 is less than 400 nM.

In the case of `COc1ccc2c(c1)S(=O)(=O)CCN(c1cccc(C(=O)N3CCc4cc(C(=O)Nc5c(C)cccc5F)sc4-c4ccccc43)n1)C2` [Example 437], the EC50 is less than 400 nM.

With `Cc1cccc(F)c1NC(=O)c1cc2c(s1)-c1ccccc1N(C(=O)c1cccc(NC3CCS(=O)(=O)C3)n1)CC2` (centres unmarked) [Example 438], the EC50 is less than 400 nM.

As usually defined, the EC50 is the concentration giving half of the maximal effect.

(Values after US10759816B2, “Heterocyclic compounds as RSV inhibitors” (Enanta Pharmaceuticals, Inc., priority 2016, dated 2020).)
